The test system of the assay is CD2F1 mice, L1210 leukemia ip, survival T/C. As to the kind of experiment: NCI In Vivo Anticancer Drug Screen. Data for tumor model L1210 Leukemia (intraperitoneal) in CD2F1 (CDF1) mice. The settings on record: higher = longer survival. The gist of the method: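 In this screen, transplantable tumors were grown in mice given either the compound or its vehicle. Results were expressed as the treated measurement relative to the control measurement.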

The mark [1] stands for this setting: endpoint: mean survival time, dose: 25.0 mg/kg/injection, schedule: Q04DX002 (ip), vehicle: saline with Tween-80.
Setting [2] is: endpoint: mean survival time, dose: 50.0 mg/kg/injection, schedule: Q01DX009 (ip), vehicle: saline with Tween-80.
Setting [3] is: endpoint: mean survival time, dose: 100.0 mg/kg/injection, schedule: Q01DX001 (ip), vehicle: saline with Tween-80.
Setting [4] is: endpoint: mean survival time, dose: 100.0 mg/kg/injection, schedule: Q01DX009 (ip), vehicle: saline with Tween-80.
[5] abbreviates: endpoint: mean survival time, dose: 100.0 mg/kg/injection, schedule: Q04DX003 (ip), vehicle: saline with Tween-80.
[6] abbreviates: endpoint: mean survival time, dose: 200.0 mg/kg/injection, schedule: Q01DX001 (ip), vehicle: saline with Tween-80.
Setting [7] is: endpoint: mean survival time, dose: 200.0 mg/kg/injection, schedule: Q01DX009 (ip), vehicle: saline with Tween-80.
The mark [8] stands for this setting: endpoint: mean survival time, dose: 200.0 mg/kg/injection, schedule: Q04DX003 (ip), vehicle: saline with Tween-80.
The mark [9] stands for this setting: endpoint: mean survival time, dose: 100.0 mg/kg/injection, schedule: Q04DX002 (ip), vehicle: saline with Tween-80.
Setting [10] is: endpoint: mean survival time, dose: 200.0 mg/kg/injection, schedule: Q04DX002 (ip), vehicle: saline with Tween-80.
Where [11] appears, read: endpoint: mean survival time, dose: 400.0 mg/kg/injection, schedule: Q04DX002 (ip), vehicle: saline with Tween-80.
The mark [12] stands for this setting: endpoint: mean survival time, dose: 12.5 mg/kg/injection, schedule: Q04DX002 (ip), vehicle: saline with Tween-80.
[13] abbreviates: endpoint: mean survival time, dose: 12.5 mg/kg/injection, schedule: Q01DX009 (ip), vehicle: saline with Tween-80.
Where [14] appears, read: endpoint: mean survival time, dose: 25.0 mg/kg/injection, schedule: Q01DX009 (ip), vehicle: saline with Tween-80.
Where [15] appears, read: endpoint: mean survival time, dose: 50.0 mg/kg/injection, schedule: Q04DX002 (ip), vehicle: saline with Tween-80.

Values joined by “and” are separate entries in the source; they are usually repeats but may differ in a detail not shown here. Equal values may be shown once. Inconclusive results and toxic doses are left out.

Regarding `O=C(COc1ccccc1)NC(=S)Nc1ccc(Cl)c(Cl)c1`, the T/C under setting [1] was 97 % of control and 105 % of control; the T/C (endpoint: mean survival time, dose: 50.0 mg/kg/injection, schedule: Q01DX001 (ip), vehicle: saline with Tween-80) is 101 % of control; the T/C under setting [2] was 98 % of control and 102 % of control; the T/C (endpoint: mean survival time, dose: 50.0 mg/kg/injection, schedule: Q04DX003 (ip), vehicle: saline with Tween-80) was 98 % of control; the T/C under setting [3] is 101 % of control; the T/C under setting [4] was 98 % of control and 106 % of control. The T/C was 96 % of control under setting [5]; 95 % of control under setting [6]; 93 % of control and 96 % of control under setting [7]; 98 % of control under setting [8].

For `Cc1ccccc1NC(=O)Oc1ccc(Cl)cc1C`, the T/C is 101 % of control under setting [9], 93 % of control under setting [10] and 97 % of control under setting [11].

`COc1cc(CCCCl)cc(OC)c1OC`: the T/C reads like this: under setting [9], 100 % of control; under setting [10], 100 % of control; under setting [11], 103 % of control.

Regarding `CCc1ccc(C(=O)CCC(=O)O)cc1`, the T/C runs as follows: under setting [9], 98 % of control; under setting [10], 95 % of control; under setting [11], 102 % of control.

As for `Cc1nc2ccccc2[nH]1`, the T/C is 102 % of control under setting [3] and 105 % of control under setting [6].

Regarding `CCCCCCCCCC[n+]1cccc(C(N)=O)c1`, the T/C runs as follows: (endpoint: mean survival time, dose: 5.0 mg/kg/injection, schedule: Q01DX009 (ip), vehicle: saline with Tween-80) 97 % of control; (endpoint: mean survival time, dose: 10.0 mg/kg/injection, schedule: Q01DX009 (ip), vehicle: saline with Tween-80) 97 % of control; (endpoint: mean survival time, dose: 20.0 mg/kg/injection, schedule: Q01DX009 (ip), vehicle: saline with Tween-80) 100 % of control.

For the compound `NC(=S)N/N=C/c1ccc(Br)cn1`, the T/C is 110 % of control under setting [12] and 110 % of control under setting [1].

Take `O=C(O)c1ccccc1SSc1ccccc1C(=O)O`: the T/C was 89 % of control under setting [2]; 101 % of control under setting [4]; 102 % of control under setting [5]; 95 % of control under setting [7]; 104 % of control under setting [8].

Regarding `CN(C)N=Nc1ccc(C(N)=O)cc1`, the T/C is, setting by setting: (endpoint: mean survival time, dose: 18.75 mg/kg/injection, schedule: Q01DX009 (ip), vehicle: Klucel (hydroxypropylcellulose) (HPC)) 112 % of control; (endpoint: mean survival time, dose: 150.0 mg/kg/injection, schedule: Q01DX009 (ip), vehicle: Klucel (hydroxypropylcellulose) (HPC)) 109 % of control; (endpoint: median survival time, dose: 12.5 mg/kg/injection, schedule: Q01DX005 (ip), vehicle: saline with Tween-80) 105 % of control; (endpoint: median survival time, dose: 25.0 mg/kg/injection, schedule: Q01DX005 (ip), vehicle: saline with Tween-80) 113 % of control; (endpoint: median survival time, dose: 36.0 mg/kg/injection, schedule: Q01DX005 (ip), vehicle: saline with Tween-80) 123 % of control and 110 % of control; (endpoint: median survival time, dose: 36.0 mg/kg/injection, schedule: Q01DX009 (ip), vehicle: saline with Tween-80) 116 % of control. For the same compound, the T/C was 113 % of control (endpoint: median survival time, dose: 60.0 mg/kg/injection, schedule: Q01DX005 (ip), vehicle: saline with Tween-80); 166 % of control (endpoint: median survival time, dose: 100.0 mg/kg/injection, schedule: Q01DX009 (ip), vehicle: saline with Tween-80); 157 % of control (endpoint: median survival time, dose: 167.0 mg/kg/injection, schedule: Q01DX005 (ip), vehicle: saline with Tween-80); 176 % of control (endpoint: median survival time, dose: 167.0 mg/kg/injection, schedule: Q01DX009 (ip), vehicle: saline with Tween-80); 96 % of control (endpoint: median survival time, dose: 278.0 mg/kg/injection, schedule: Q01DX005 (ip), vehicle: saline with Tween-80); 98 % of control (endpoint: median survival time, dose: 278.0 mg/kg/injection, schedule: Q01DX009 (ip), vehicle: saline with Tween-80).

Turning to `COc1ccc(C(C)C(C)=O)cc1` (stereo unspecified), the T/C reads like this: under setting [13], 91 % of control; under setting [14], 91 % of control; under setting [2], 95 % of control.

For the compound `N=c1nc2c3ccccc3nnn2c2ccccc12`, the T/C reads like this: (endpoint: mean survival time, dose: 50.0 mg/kg/injection, schedule: Q01DX001 (ip), vehicle: Klucel (hydroxypropylcellulose) (HPC)) 101 % of control; (endpoint: mean survival time, dose: 100.0 mg/kg/injection, schedule: Q01DX001 (ip), vehicle: Klucel (hydroxypropylcellulose) (HPC)) 112 % of control.

With `CC1(C(=O)O)CC2CCC1CC2` (stereo unspecified), the T/C is, setting by setting: under setting [15], 96 % of control; under setting [9], 107 % of control; under setting [10], 100 % of control; under setting [11], 96 % of control.

As to `O=C1NC(CN2CCCCC2)C(=O)NC1CN1CCCCC1` (stereo unspecified), the T/C (endpoint: mean survival time, dose: 3.13 mg/kg/injection, schedule: Q01DX009 (ip), vehicle: water) was 98 % of control; the T/C (endpoint: mean survival time, dose: 6.25 mg/kg/injection, schedule: Q01DX009 (ip), vehicle: water) was 98 % of control; the T/C (endpoint: mean survival time, dose: 12.5 mg/kg/injection, schedule: Q01DX009 (ip), vehicle: water) is 105 % of control; the T/C (endpoint: mean survival time, dose: 25.0 mg/kg/injection, schedule: Q01DX009 (ip), vehicle: water) was 103 % of control; the T/C (endpoint: mean survival time, dose: 50.0 mg/kg/injection, schedule: Q01DX009 (ip), vehicle: water) is 98 % of control; the T/C (endpoint: mean survival time, dose: 100.0 mg/kg/injection, schedule: Q01DX009 (ip), vehicle: water) is 105 % of control.

With `c1cc2c(cc1CC1CCNC1)OCO2` (stereo unspecified), the T/C (endpoint: mean survival time, dose: 5.0 mg/kg/injection, schedule: Q01DX001 (ip), vehicle: saline) is 103 % of control; the T/C (endpoint: mean survival time, dose: 5.0 mg/kg/injection, schedule: Q01DX009 (ip), vehicle: saline sonified) was 100 % of control; the T/C (endpoint: mean survival time, dose: 5.0 mg/kg/injection, schedule: Q04DX003 (ip), vehicle: saline) is 101 % of control; the T/C (endpoint: mean survival time, dose: 10.0 mg/kg/injection, schedule: Q01DX001 (ip), vehicle: saline) was 103 % of control; the T/C (endpoint: mean survival time, dose: 10.0 mg/kg/injection, schedule: Q01DX009 (ip), vehicle: saline sonified) is 91 % of control; the T/C (endpoint: mean survival time, dose: 10.0 mg/kg/injection, schedule: Q04DX003 (ip), vehicle: saline) is 102 % of control. The T/C reads like this: (endpoint: mean survival time, dose: 20.0 mg/kg/injection, schedule: Q01DX001 (ip), vehicle: saline) 98 % of control; (endpoint: mean survival time, dose: 20.0 mg/kg/injection, schedule: Q01DX009 (ip), vehicle: saline sonified) 100 % of control; (endpoint: mean survival time, dose: 20.0 mg/kg/injection, schedule: Q04DX003 (ip), vehicle: saline) 101 % of control.

`CCOC(=O)Nc1cc(=O)cc(NC(=O)OCC)[nH]1`: the T/C reads like this: (endpoint: mean survival time, dose: 75.0 mg/kg/injection, schedule: Q04DX003 (ip), vehicle: saline) 98 % of control; (endpoint: mean survival time, dose: 150.0 mg/kg/injection, schedule: Q04DX003 (ip), vehicle: saline) 97 % of control; (endpoint: mean survival time, dose: 300.0 mg/kg/injection, schedule: Q04DX003 (ip), vehicle: saline) 97 % of control.

In the case of `O=C=Nc1cccc2c(N=C=O)cccc12`, the T/C under setting [13] is 91 % of control, the T/C under setting [14] is 102 % of control and the T/C under setting [2] is 91 % of control.

On to `O=C(NCCNC(=O)c1ccccc1)c1ccccc1`, for which the T/C by setting is: (endpoint: mean survival time, dose: 6.25 mg/kg/injection, schedule: Q04DX002 (ip), vehicle: saline with Tween-80) 97 % of control; under setting [12], 93 % of control; under setting [1], 93 % of control; under setting [15], 89 % of control; (endpoint: median survival time, dose: 50.0 mg/kg/injection, schedule: Q04DX002 (ip), vehicle: saline with Tween-80) 94 % of control.

Turning to `C[C@]12CCC(=O)C=C1CC[C@@H]1[C@@H]2[C@@H](O)C[C@@]2(C)[C@H]1CC[C@]2(O)C(=O)COC(=O)COCC(=O)O`, the T/C reads like this: (endpoint: mean survival time, dose: 100.0 mg/kg/injection, schedule: Q01DX001 (sc), vehicle: steriod suspending solution) 106 % of control; (endpoint: mean survival time, dose: 200.0 mg/kg/injection, schedule: Q01DX001 (sc), vehicle: steriod suspending solution) 108 % of control; (endpoint: mean survival time, dose: 400.0 mg/kg/injection, schedule: Q01DX001 (sc), vehicle: steriod suspending solution) 103 % of control.
